US10550130B2, “Benzo-thiazolo-imidazole compounds and uses thereof” (KING SAUD UNIVERSITY, priority 2015, dated 2020)

Tests used:
[1] = Determination of LD50 value; settings: male, Swiss Webster Albino, mouse, in vivo, ip
Description: Swiss Webster Albino mice were housed in groups of 2 or 4 in elevated steel wire-mesh cages in a controlled room maintained at a temperature of 22±2° C., relative humidity of 50±10% and a 12 h light-dark cycle. Rodent diet chow (feed) provided by Grain Silos Flour Mills Organization, Riyadh, Saudi Arabia, and tap water for drinking were made available ad lib.
Male mice were divided into various groups (n=10 animals per group). Each group was administered a different dose of the respective compound via the intraperitoneal (i.p.) route. The dose range used was 100-5000 mg/kg.
During the observation periods there was a continuous record of any behavioral changes and clinical symptoms that caused by effects on the central and autonomic nervous systems, the respiratory and the cardiovascular systems or any other action on the gastrointestinal tract, the renal systems, eye, skin, skeletal muscles etc.
During the 72 hour observation period the number of animals that died in every group was recorded. The percentage of death calculated and converted to probits to calculate the LD50 value for each compound in mg/kg. The LD50 value reported in this study provided compounds in their liquid form in the provided concentrations.

Numb = test: Immunofluorescence of Numb in MDA-MB-231 breast cancer cells; type: cell-based; settings: MDA-MB-231 cells; 0.01, 0.1, 1 or 10 μM
Description: (§1) MDA-MB-231 breast cancer cells were treated either with vehicle (control) or with 0.01 μM, 0.1 μM, 1 μM or 10 μM final concentration of doxorubicin, taxotere or KSA-101696. Then, the cells were cytospun to glass slides by centrifugation at 800 rpm for 3 min. Slides were then air-dried overnight and 4% formaldehyde fixed for 10 min. For staining, the cell membrane was permeabilized with 0.5% triton-X (Sigma) followed by overnight incubation with primary antibodies (anti-Numb, Abcam) and (anti-intracellular Notch-1, Cell Signalling) at 1:100. Cells were washed and stained with AlexaFluor goat anti-rabbit IgG 488 (Invitrogenat) 1:400 for 30 minutes. 300 nM DAPI (Invitrogen, Carlsbad, Calif., USA) was added for 10 minutes to counterstain the nuclei. Slides were mounted and immunofluorescence was visualized using BD Pathway 855 microscope.
(§2) Numb exerts its functional role on cell fate decisions by antagonizing Notch signaling activities. The molecular mechanisms underlying this relationship appear to rely on the ubiquitination of the membrane bound Notch-1 receptor and the subsequent degradation of its NICD (Notch intracellular domain) following receptor activation.

intracellular Notch-1 = test: Immunofluorescence of intracellular Notch-1 in MDA-MB-231 breast cancer cells; type: cell-based; settings: MDA-MB-231 cells; 0.01, 0.1, 1 or 10 μM
Description: as §1, §2

Structure (SMILES)	LD50 at 72 h [1] [mg/kg]	Numb expression (immunofluorescence microscopy) (Numb)	Notch self-renewal pathway (intracellular Notch-1)
COc1cccc2c1C(=O)c1c(O)c3c(c(O)c1C2=O)C[C@@](O)(C(=O)CO)C[C@@H]3O[C@H]1C[C@H](N)[C@H](O)[C@H](C)O1 [Doxorubicin]	60	inhibited Numb expression	activated the Notch self-renewal pathway
CC(=O)O[C@@]12CO[C@@H]1C[C@H](O)[C@@]1(C)C(=O)[C@H](O)C3=C(C)[C@@H](OC(=O)[C@H](O)[C@@H](NC(=O)OC(C)(C)C)c4ccccc4)C[C@@](O)([C@@H](OC(=O)c4ccccc4)[C@H]21)C3(C)C [taxotere]		inhibited Numb expression	activated the Notch self-renewal pathway
